From patent US20030134851A1, “Methods and compositions for providing glutamine” (priority 2001, published 2003)

Experiments:
[1] = pig, in vivo
Source text: Twenty-two domestic pigs weighing 15-20 kg were acclimated to lab conditions over 4 days. The pigs were fed a standard pig diet, which followed energetic requirements for these animals (Nutrient Requirements of Swine, 9th, 1998, Subcommittee on Swine Nutrition, National Research Council) and water ad libitum. Animals were randomly assigned into group C [6 pigs, receiving a glucosaline solution (Braun cat No 622647), 5% glucose, 0.9% NaCI], group G [8 pigs, receiving the same glucosaline solution fortified with 8 g/l of Gln, (Sigma cat No G-3126)], and group N [8 pigs, receiving the same glucosaline solution fortified with 10 g/l of NAQ, (Sigma cat No A-9125)]. Before surgery, animals were fasted 15 h. The day of experiment, animals were weighed and anaesthetized using Stresnil® and penthotal. […]
The analysis for N-acetyl-L-glutamine was conducted as follows. […] The detection and quantification of N-acetyl-L-glutamine was monitored at 210 nm.
The analysis for glutamine and glutamate was conducted as follows. […] After 1 minute the sample was diluted to 1 mL and injected into the HPLC system, consisting of a 2690 Separation Module, fluorescence detector and a SupelcoSil LC-18 column (250×4 mm, 3 micrometers). […] The detection and quantification of glutamate and glutamine was accomplished using an excitation wavelength of 250 nm and monitoring emission at 395 nm. […]

[2] = Feeding pig model (absorption as component of diet); assay type: in vivo
Source text: Fifteen pigs, 15-20 kg in weight were provided by a certified farm. The pigs were acclimated to the laboratory for 2 days. A standard pig diet and water was provided ad libitum. After acclimation, the pigs were randomly assigned into group C [5 pigs, receiving a standard pig diet plus 3 g/kg of Cr2O3, (Merck cat No 1.02483)], group G [5 pigs, receiving diet C plus 8 g/kg of Gln, (Ajimoto)], and group N [5 pigs, receiving diet C plus 10.5 g/kg of N-acetyl-L-glutamine, (Flamma)]. During the experimental phase of the study, each group received 1000 grams of their respective diet per day per animal, fed in 3 portions and water was provided ad libitum. This experimental phase of feeding lasted 5 days.
On the day of experiment, animals were weighed and received the standard diet intake (333 g diet per animal) at 7:00 a.m. Three hours after feeding, animals were weighed, sedated and bled through jugular vein puncture. Animals were quickly opened by abdominal medium sagital incision and the content of the duodenum, medium jejunum (about 2 meters from the ligament of Treitz) and ileum (30 cm from the ileocecal valve) were taken, frozen in liquid nitrogen, lyophylized, and stored at −80° C. until analysis. Samples of liver and kidney were removed, dissected of visible fat and connective tissue, quickly frozen in liquid nitrogen and stored at −80° C. until analysis. […]
Intestinal content was analyzed for glutamine, N-acetyl-L-glutamine and chromium (III) oxide. […]
For analysis of glutamine, the lyophilized intestinal content was treated and analyzed as described in the intestinal loop model above.
Chromium was incorporated into the diets to provide a correction factor to reflect content per kg of original diet. […] The absorbance at 372 nm against demineralized water as a blank was determined. The absorbance readings were converted to mg of Cr2O3 by employing the equation of a standard curve prepared by analyzing 0, 50, 100, 200 and 500 microliters of a standard chromium solution (2.9034 g of K2Cr2O7/L, which is equivalent to 1.5 g/L of Cr2O3).

[3] = N-acetyl-L-glutamine diet (55.8 mmole/kg diet), pigs, 3 hours after feeding

## CC(=O)N[C@@H](CCC(N)=O)C(=O)O [N-acetyl-L-glutamine]
[1]
  Glutamine in portal blood, N group versus G group: no significant differences between G and N
[2]; [3]
  N-acetyl-L-glutamine in distal ileum content: 12.8 ± 2.1 mmole/kg original diet
  N-acetyl-L-glutamine in medium jejunum content: 10.3 ± 2.4 mmole/kg original diet
[2]; pig, in vivo
  Absorption between the medial jejunum and the distal ilium: not observed
